Laboratory results: ChEMBL document CHEMBL1649156, “Antianaerobic activity of sulopenem compared to six other agents” (2009)

Legend:
Format in all cases: functional
[1] = test system: Paeniclostridium sordellii; assay: Antimicrobial activity in Clostridium sordellii by CLSI agar dilution method; conditions: Paraclostridium sordellii
Clostridium cadaveris = assay: Antimicrobial activity in Clostridium cadaveris by CLSI agar dilution method
Hoylesella loescheii = assay: Antimicrobial activity in Prevotella loescheii by CLSI agar dilution method
Bacteroides fragilis = assay: Antimicrobial activity in Bacteroides fragilis by CLSI agar dilution method
Eggerthella lenta = assay: Antimicrobial activity in Eggerthella lenta by CLSI agar dilution method
Hoylesella oralis = assay: Antimicrobial activity in Prevotella oralis group by CLSI agar dilution method
Finegoldia magna = assay: Antimicrobial activity in Finegoldia magna by CLSI agar dilution method
Clostridioides difficile = assay: Antimicrobial activity in Clostridium difficile by CLSI agar dilution method
Prevotella nigrescens = assay: Antimicrobial activity in Prevotella nigrescens by CLSI agar dilution method
Bacteroides stercoris = assay: Antimicrobial activity in Bacteroides stercoris by CLSI agar dilution method
Clostridium tertium = assay: Antimicrobial activity in Clostridium tertium by CLSI agar dilution method
Bifidobacterium = assay: Antimicrobial activity in Bifidobacterium by CLSI agar dilution method
Prevotella veroralis = assay: Antimicrobial activity in Prevotella veroralis by CLSI agar dilution method
[2] = test system: Peptostreptococcus anaerobius; assay: Antimicrobial activity in Peptostreptococcus anaerobius by CLSI agar dilution method
[Clostridium] innocuum = Antimicrobial activity in Clostridium innocuum by CLSI agar dilution method
Bacteroides ovatus = assay: Antimicrobial activity in Bacteroides ovatus by CLSI agar dilution method
Anaerococcus tetradius = assay: Antimicrobial activity in Anaerococcus tetradius by CLSI agar dilution method
Clostridium butyricum = assay: Antimicrobial activity in Clostridium butyricum by CLSI agar dilution method
[3] = test system: Paraclostridium bifermentans; assay: Antimicrobial activity in Clostridium bifermentans by CLSI agar dilution method
Prevotella sp. = assay: Antimicrobial activity in Prevotella sp.by CLSI agar dilution method
[4] = test system: Enterocloster clostridioformis; assay: Antimicrobial activity in Clostridium clostridioforme by CLSI agar dilution method
Prevotella intermedia = assay: Antimicrobial activity in Prevotella intermedia by CLSI agar dilution method
Fusobacterium nucleatum = assay: Antimicrobial activity in Fusobacterium nucleatum by CLSI agar dilution method
Prevotella baroniae = assay: Antimicrobial activity in Prevotella baroniae by CLSI agar dilution method; conditions: Segatella baroniae
Bacteroides uniformis = assay: Antimicrobial activity in Bacteroides uniformis by CLSI agar dilution method
Parvimonas micra = assay: Antimicrobial activity in Micromonas micros by CLSI agar dilution method
Lactobacillus = assay: Antimicrobial activity in Lactobacillus by CLSI agar dilution method
Prevotella denticola = assay: Antimicrobial activity in Prevotella denticola by CLSI agar dilution method
Porphyromonas gingivalis = assay: Antimicrobial activity in Porphyromonas gingivalis by CLSI agar dilution method
Clostridium perfringens = assay: Antimicrobial activity in Clostridium perfringens by CLSI agar dilution method
[5] = test system: Bacteroides thetaiotaomicron; assay: Antimicrobial activity in Bacteroides thetaiotaomicron by CLSI agar dilution method
Fusobacterium varium = assay: Antimicrobial activity in Fusobacterium varium by CLSI agar dilution method
Thomasclavelia ramosa = assay: Antimicrobial activity in Clostridium ramosum by CLSI agar dilution method
Prevotella disiens = assay: Antimicrobial activity in Prevotella disiens by CLSI agar dilution method
Prevotella salivae = assay: Antimicrobial activity in Prevotella salivae by CLSI agar dilution method; conditions: Segatella salivae
[6] = test system: Porphyromonas asaccharolytica; assay: Antimicrobial activity in Porphyromonas asaccharolytica by CLSI agar dilution method
Actinomyces = assay: Antimicrobial activity in Actinomyces by CLSI agar dilution method
Anaerococcus prevotii = assay: Antimicrobial activity in Anaerococcus prevotii by CLSI agar dilution method
Tissierella praeacuta = assay: Antimicrobial activity in Clostridium hastiforme by CLSI agar dilution method
Phocaeicola vulgatus = assay: Antimicrobial activity in Bacteroides vulgatus by CLSI agar dilution method
Prevotella buccae = assay: Antimicrobial activity in Prevotella buccae by CLSI agar dilution method; conditions: Segatella buccae
Prevotella bivia = assay: Antimicrobial activity in Prevotella bivia by CLSI agar dilution method
[7] = test system: Fusobacterium necrophorum; assay: Antimicrobial activity in Fusobacterium necrophorum by CLSI agar dilution method
Clostridium sp. = assay: Antimicrobial activity in Clostridium sp. by CLSI agar dilution method
Prevotella corporis = assay: Antimicrobial activity in Prevotella corporis by CLSI agar dilution method
Fusobacterium mortiferum = assay: Antimicrobial activity in Fusobacterium mortiferum by CLSI agar dilution method
Prevotella bergensis = assay: Antimicrobial activity in Prevotella bergensis by CLSI agar dilution method; conditions: Hallella bergensis
[8] = test system: Parabacteroides distasonis; assay: Antimicrobial activity in Bacteroides distasonis by CLSI agar dilution method
[9] = test system: Prevotella melaninogenica; assay: Antimicrobial activity in Prevotella melaninogenica by CLSI agar dilution method
Cutibacterium acnes = assay: Antimicrobial activity in Propionibacterium acnes by CLSI agar dilution method
[10] = test system: Peptoniphilus asaccharolyticus; assay: Antimicrobial activity in Peptoniphilus asaccharolyticus by CLSI agar dilution method

Cc1ncc([N+](=O)[O-])n1CCO [METRONIDAZOLE]
0.25 µg/mL: MIC (Prevotella veroralis) | MIC [3] | MIC50 (Parvimonas micra) | MIC50 (Fusobacterium varium) | MIC (Tissierella praeacuta) | MIC50 [7] | MIC50 (Fusobacterium mortiferum)
2 µg/mL: MIC90 [5] | MIC90 (Prevotella buccae) | MIC50 (Prevotella bivia)
≤ 0.125 µg/mL: MIC (Clostridium cadaveris) | MIC (Hoylesella oralis) | MIC ([Clostridium] innocuum) | MIC (Clostridium butyricum) | MIC [4] | MIC (Fusobacterium nucleatum) | MIC50 (Fusobacterium nucleatum) | MIC (Porphyromonas gingivalis) | MIC (Prevotella salivae) | MIC [6] | MIC [7] | MIC (Prevotella corporis) | MIC [10]
4 µg/mL: MIC90 (Prevotella bivia)
1 µg/mL: MIC [1] | MIC50 (Bacteroides fragilis) | MIC90 (Bacteroides fragilis) | MIC90 (Finegoldia magna) | MIC90 (Prevotella nigrescens) | MIC (Bacteroides stercoris) | MIC50 (Bacteroides stercoris) | MIC50 (Clostridium tertium) | MIC90 [2] | MIC50 (Bacteroides ovatus) | MIC90 (Bacteroides ovatus) | MIC50 (Anaerococcus tetradius) | MIC90 (Anaerococcus tetradius) | MIC90 (Prevotella intermedia) | MIC90 (Prevotella denticola) | MIC50 (Clostridium perfringens) | MIC90 (Clostridium perfringens) | MIC [5] | MIC50 [5] | MIC (Thomasclavelia ramosa) | MIC (Prevotella disiens) | MIC50 (Prevotella disiens) | MIC (Anaerococcus prevotii) | MIC90 (Phocaeicola vulgatus) | MIC50 (Prevotella buccae) | MIC50 (Clostridium sp.) | MIC90 (Clostridium sp.) | MIC50 [8] | MIC90 [8] | MIC90 [9] | MIC50 [10]
> 1 µg/mL: MIC (Actinomyces)
0.5 µg/mL: MIC (Hoylesella loescheii) | MIC50 (Eggerthella lenta) | MIC90 (Eggerthella lenta) | MIC50 (Finegoldia magna) | MIC50 (Clostridioides difficile) | MIC90 (Clostridioides difficile) | MIC50 (Prevotella nigrescens) | MIC (Clostridium tertium) | MIC50 [2] | MIC (Prevotella sp.) | MIC50 (Prevotella intermedia) | MIC90 (Fusobacterium nucleatum) | MIC (Prevotella baroniae) | MIC (Bacteroides uniformis) | MIC50 (Bacteroides uniformis) | MIC90 (Parvimonas micra) | MIC50 (Prevotella denticola) | MIC90 (Fusobacterium varium) | MIC50 (Phocaeicola vulgatus) | MIC50 (Prevotella corporis) | MIC90 (Fusobacterium mortiferum) | MIC (Prevotella bergensis) | MIC50 [9]
> 16 µg/mL: MIC50 (Bifidobacterium) | MIC90 (Bifidobacterium) | MIC (Lactobacillus) | MIC50 (Lactobacillus) | MIC50 (Actinomyces) | MIC (Cutibacterium acnes) | MIC50 (Cutibacterium acnes) | MIC90 (Cutibacterium acnes)
16 µg/mL: MIC90 (Lactobacillus)
